The text below walks through data of ChEMBL document CHEMBL5257089, “Gamabufotalin Induces Apoptosis and Cytoprotective Autophagy through the mTOR Signaling Pathway in Hepatocellular Carcinoma” (J Nat Prod, 2023).

Molecules are shown by their SMILES. Activity calls are given as the source filed them. The rule behind the calls is not given here.

Test [1] deals with Huh-7. Description: Induction of apoptosis in human Huh-7 cells assessed as viable cells at 10 nM incubated for 48 hrs in presence of gamabufotalin by Annexin V-FITC/PI staining based flow cytometry method (reference value: 91.5%). Format: functional. The settings on record: read-out: Activity.
Test [2] has as its system Hep 3B2. As to the kind of experiment: Induction of apoptosis in human Hep3B cells assessed as increase in PARP level at 10 nM incubated for 48 hrs in presence of gamabufotalin by immunoblot analysis. Format: functional, cell-based. A general note: In western blotting, separated proteins are transferred to a membrane and probed.
For test [3], the system named is Hep 3B2. As to the kind of experiment: Induction of apoptosis in human Hep3B cells assessed as viable cells at 10 nM incubated for 48 hrs by Annexin V-FITC/PI staining based flow cytometry method (reference value: 94.0%). It counts as functional. The note with it: read-out: Activity. Background: Flow cytometry measures light scatter and fluorescence of single cells or particles in a stream.

The test system of test [4] is Hep 3B2. As to the kind of experiment: Induction of autophagic flux in human Hep3B cells assessed as rescue of LC3-II accumulation at 10 uM incubated for 48 hrs in presence of gamabufotalin by Western blot analysis. Format: functional, cell-based.
Test [5] deals with Huh-7. As to the kind of experiment: Induction of apoptosis in human Huh-7 cells assessed as necrotic cells at 10 nM incubated for 48 hrs by Annexin V-FITC/PI staining based flow cytometry method (reference value: 1.0%). It counts as functional.
In test [6] the test system is Hep 3B2. Description: Induction of apoptosis in human Hep3B cells assessed as viable cells at 25 nM incubated for 48 hrs by Annexin V-FITC/PI staining based flow cytometry method (reference value: 93.3%). The settings on record: read-out: Activity. Format: functional.
In test [7] the test system is Hep 3B2. As to the kind of experiment: Induction of apoptosis in human Hep3B cells assessed as necrotic cells at 15 nM incubated for 48 hrs by Annexin V-FITC/PI staining based flow cytometry method (reference value: 0.2%). Format: functional.
The subject of test [8] is Hep 3B2. Description: Induction of apoptosis in human Hep3B cells assessed as upregulation of caspase-3 level […] incubated for 48 hrs in presence of 4,6-dimorpholino-N-(4-nitrophenyl)-1,3,5-triazin-2-amine by immunoblot analysis. It counts as functional, cell-based.
Test [9] relates to Hep 3B2. As to the kind of experiment: Induction of apoptosis in human Hep3B cells assessed as increase in PARP level at 25 nM incubated for 48 hrs in presence of chloroquine by immunoblot analysis. Format: functional, cell-based.
Test [10] deals with Hep 3B2. Description: Induction of apoptosis in human Hep3B cells assessed as increase in cleaved caspase-3 expression at upto 25 nM incubated for 48 hrs by Western blot analysis. It counts as functional, cell-based.
Test [11] concerns Hep 3B2. As to the kind of experiment: Antiproliferative activity against human Hep3B cells assessed as cell viability incubated for 24 hrs by CCK-8. It counts as functional, cell-based.
Test [12] relates to Hep 3B2. As to the kind of experiment: Induction of autophagic flux in human Hep3B cells assessed as rescue of LC3-II accumulation at 25 uM incubated for 48 hrs in presence of chloroquine by Western blot analysis. It counts as functional, cell-based.
Test [13] concerns Hep 3B2. Description: Induction of apoptosis in human Hep3B cells assessed as upregulation of PARP level […] incubated for 48 hrs in presence of 4,6-dimorpholino-N-(4-nitrophenyl)-1,3,5-triazin-2-amine by immunoblot analysis. It counts as functional, cell-based.
Test [14] concerns Huh-7. Description: Induction of autophagy in human Huh-7 cells assessed as rescue of ULK1 phosphorylation level at upto 25 nM incubated for 48 hrs in presence of chloroquine by immunoblot method. Format: functional, cell-based.
Test [15] concerns Huh-7. Description: Induction of apoptosis in human Huh-7 cells assessed as early apoptotic cells at 15 nM incubated for 48 hrs by Annexin V-FITC/PI staining based flow cytometry method (reference value: 1.7%). Format: functional.
Test [16] has as its system Hep 3B2. Description: Induction of autophagic flux in human Hep3B cells harbouring mCherry-egfp-LC3 assessed as increase in yellow puncta at 25 nM incubated for 15 mins by laser scanning confocal microscopic analysis. Format: functional, cell-based.
In test [17] the test system is Huh-7. Description: Antiproliferative activity against human Huh-7 cells assessed as cell viability incubated for 24 hrs by CCK-8. The settings on record: Huh-7, 24 h. It counts as functional, cell-based.
The test system of test [18] is Huh-7. As to the kind of experiment: Induction of morphological changes in human Huh-7 cells assessed as adherent cells at upto 25 nM incubated for 48 hrs by bright field imaging analysis. It counts as functional, cell-based.
Test [19] has as its system Hep 3B2. Description: Induction of autophagy in human Hep3B cells harbouring mCherry-egfp-LC3 assessed as reduction in red puncta ratio at 25 nM incubated for 15 mins in presence of 4,6-dimorpholino-N-(4-nitrophenyl)-1,3,5-triazin-2-amine by laser scanning confocal microscopic analysis. It counts as functional, cell-based.
The subject of test [20] is Huh-7. As to the kind of experiment: Induction of apoptosis in human Huh-7 cells assessed as viable cells at 25 nM incubated for 48 hrs in presence of 4,6-dimorpholino-N-(4-nitrophenyl)-1,3,5-triazin-2-amine by Annexin V-FITC/PI staining based flow cytometry method (reference value: 90.0%). The settings on record: read-out: Activity. Format: functional.
In test [21] the test system is Hep 3B2. As to the kind of experiment: Induction of autophagic flux in human Hep3B cells harbouring mCherry-egfp-LC3 assessed as reduction in number of yellow puncta ratio at 25 nM incubated for 15 mins in presence of chloroquine by laser scanning confocal microscopic analysis. Format: functional, cell-based.
Test [22] deals with Huh-7. As to the kind of experiment: Induction of autophagic flux in human Huh-7 cells harbouring mCherry-egfp-LC3 assessed as reduction in number of red puncta ratio at 25 nM incubated for 15 mins in presence of chloroquine by laser scanning confocal microscopic analysis. It counts as functional, cell-based.
Test [23] deals with Hep 3B2. As to the kind of experiment: Induction of apoptosis in human Hep3B cells assessed as increase in cleaved caspase-3 level at 25 nM incubated for 48 hrs in presence of chloroquine by immunoblot analysis. It counts as functional, cell-based.
The subject of test [24] is Hep 3B2. As to the kind of experiment: Induction of apoptosis in human Hep3B cells assessed as increase in cleaved bax level at 25 nM incubated for 48 hrs in presence of chloroquine by immunoblot analysis. It counts as functional, cell-based.
Test [25] concerns Hep 3B2. Description: Induction of apoptosis in human Hep3B cells assessed as late apoptotic cells at 25 nM incubated for 48 hrs by Annexin V-FITC/PI staining based flow cytometry method (reference value: 2.6%). It counts as functional.
In test [26] the test system is Huh-7. Description: Induction of apoptosis in human Huh-7 cells assessed as viable cells at 25 nM measured after 48 hrs in presence of z-VAD-FMK by annexin V-FITC/Propidium iodide staining based flow cytometric analysis (reference value: 91.7%). Format: functional. The note with it: read-out: Activity.
The subject of test [27] is Hep 3B2. As to the kind of experiment: Induction of apoptosis in human Hep3B cells assessed as early apoptotic cells at 15 nM incubated for 48 hrs by Annexin V-FITC/PI staining based flow cytometry method (reference value: 3.9%). Format: functional.
Test [28] deals with Hep 3B2. As to the kind of experiment: Antitumor activity against human Hep3B cells xenografted in nude mouse model assessed as upregulation of LC3 II expression at 5 mg/kg,ip administered every second day for 3 weeks by Western blot analysis. It counts as functional, organism-based. In general terms: In xenograft studies the graft and the host belong to different species.
Test [29] has as its system Hep 3B2. Description: Induction of apoptosis in human Hep3B cells assessed as late apoptotic cells at 25 nM measured after 48 hrs by annexin V-FITC/Propidium iodide staining based flow cytometric analysis (reference value: 2.4%). It counts as functional.
Test [30] concerns Huh-7. As to the kind of experiment: Induction of apoptosis in human Huh-7 cells assessed as viable cells at 25 nM measured after 48 hrs by annexin V-FITC/Propidium iodide staining based flow cytometric analysis (reference value: 91.7%). Format: functional. The note with it: read-out: Activity.
The test system of test [31] is Hep 3B2. As to the kind of experiment: Induction of autophagic flux in human Hep3B cells assessed as increase in intracellular vesicles at 25 nM incubated for 48 hrs by transmission electron microscopic analysis. Format: functional, cell-based.
Test [32] has as its system Hep 3B2. As to the kind of experiment: Induction of morphological changes in human Hep3B cells assessed as adherent cells at upto 25 nM incubated for 48 hrs by bright field imaging analysis. It counts as functional, cell-based.
Test [33] has as its system Hep 3B2. Description: Antitumor activity against human Hep3B cells xenografted in nude mouse model assessed as decrease in tumor weight at 5 mg/kg,ip administered every second day for 3 weeks by vernier caliper method. It counts as functional, organism-based.
In test [34] the test system is Huh-7. Description: Induction of apoptosis in human Huh-7 cells assessed as increase in caspase-3 level at 25 nM incubated for 48 hrs in presence of chloroquine by immunoblot analysis. Format: functional, cell-based.

On to `CCN(CC)CCCC(C)Nc1ccnc2cc(Cl)ccc12` (centres undefined) [CHLOROQUINE], for which the viability at 0.01 µM in test [1] amounted to 65.4%; in test [3], 93.6%. In addition, the result in test [2] and in [4] was Active. Moreover, in [5], the Activity was 1.9%.
Turning to `C[C@]12CC[C@H](O)C[C@H]1CC[C@@H]1[C@@H]2[C@H](O)C[C@]2(C)[C@@H](c3ccc(=O)oc3)CC[C@]12O` [GAMABUFOTALIN], the viability at 0.025 µM in test [6] stood at 84.9%; in test [20], 76.8%; in test [26], 89%; in test [30], 72%. Further, the Activity amounted to 0.5% in test [7]; 4% in test [15]; 5.2% in test [25]; 6.8% in test [27]; 13.2% in [29]. Further, the outcome in test [8], in test [9], in [10], in test [12], in [13] and in test [14] was Active. Moreover, the outcome in [16], in [18], in test [19], in test [21], in test [22] and in test [23] was Active. In addition, the result in [24], in test [28], in test [31], in test [32], in test [33] and in test [34] was Active. Besides, the figures for the IC50 in [11] and in [17] were 27 nM and 23 nM, respectively.

Usually IC50 stands for the concentration needed to halve the response being measured.
